Consider two compounds from EP3974434B1, “MACROLIDE DERIVATIVES, PREPARATION METHOD AND APPLICATION THEREOF” (Zhejiang Hisun Pharmaceutical Co., Ltd., priority 2019, dated 2020).

What all share (type): biochemical
Assay [1] has as its target T1, ALK (Homo sapiens, UniProt Q9UM73).
T1 construct: purchased SignalChem A19-11G-10
The assay can be described thus: HTRF KinEASE-TK kinase activity inhibition assay, ALK. The settings on record: ATP 1 µM. Background: In TR-FRET formats the signal depends on donor and acceptor labels being close together.
Description: The following method was used to determine the inhibition degrees of the compounds of the present invention on the activity of recombinant human ALK kinase in vitro. In this method, HTRF®KinEASE-TK tyrosine kinase kit (article No. 62TK0PEB) of Cisbio company was used, the principle of the kit was based on time-resolved fluorescence resonance energy transfer (TF-FRET), and the inhibition of the compounds on the activity of the ALK kinase was reflected by determining a phosphorylation degree of a biotinylated polypeptide substrate mediated by ALK kinase. […] The recombinant human ALK was purchased from SignalChem (article number was ALK#A19-11G-10).
The experimental flow was briefly described as follows: a test compound was first dissolved in DMSO to prepare a storage solution, and then diluted in gradient with a buffer provided in the kit. A final concentration of the test compound in the reaction system ranged from 1000 nM to 0.004 nM. An ATP Km value concentration of each ALK protein was determined by using an ATP solution diluted in gradient (Sangon Biotech (Shanghai) Co., Ltd., A600311). […] After incubation, fluorescence intensity values of each well at an excitation wavelength of 304 nm, and emission wavelengths of 620 nm and 665 nM were determined in a TF-FRET mode on a microplate reader, and the fluorescence intensity ratio 665/620 of each well was calculated. […]

Assay [2] addresses T2, TRKA(G595R) (Homo sapiens, UniProt P04629, G595R).
T2 construct: purchased SignalChem N16-12BG-10
The assay can be described thus: HTRF KinEASE-TK kinase activity inhibition assay, TRKA(G595R). The settings on record: ATP 7 µM. From the text: (§1) The following method was used to determine the inhibition degrees of the compounds of the present invention on the activity of recombinant human NTRK family kinase in vitro. In this method, HTRF®KinEASE-TK tyrosine kinase kit (article number: 62TK0PEB) of Cisbio company was used, and the principle of the kit was based on time-resolved fluorescence resonance energy transfer (TF-FRET), and the inhibition of the compounds on the activity of the NTRK kinase was reflected by determining a phosphorylation degree of a biotinylated polypeptide substrate mediated by NTRK kinase. For detailed experimental operation, please refer to the kit instruction. Recombinant human wild-type NTRK proteins were purchased from Carna bioscience (the article numbers were TRKA #08-186, TRKB #08-187 and TRKC #08-197 respectively), and recombinant human mutant NTRK proteins were purchased from SignalChem (the article numbers were TRKA G595R #N16-12BG-10, TRKA G667C # N16-12CG-10, and TRKC G623R # N18-12CH-10 respectively).
(§2) The experimental methods were operated according to the steps in the kit instruction, and were briefly described as follows: a test compound was first dissolved in DMSO to prepare a storage solution, and then diluted in gradient with a buffer provided in the kit. A final concentration of the test compound in the reaction system ranged from 1,000 nM to 0.004 nM. An ATP Km value concentration of each NTRK protein was determined by using an ATP solution diluted in gradient (Sangon Biotech (Shanghai) Co., Ltd., A600311). According to the Km value obtained, the ATP concentrations in the reaction system were set as 100 µM for TRKA, 10 µM for TRKB, 50 µM for TRKC, 7 µM for TRKA(G595R), 1 µM for TRKA(G667C) and 100 µM for TRKC(G623R). The reaction was carried out in a 384-well microplate. Firstly, the compound and a certain amount of corresponding NTRK protein were added to the wells and incubated for 5 minutes to 10 minutes at room temperature. Then, the ATP solution and the biotinylated polypeptide substrate solution were added to the reaction solution and incubated with shaking at room temperature for 60 minutes. Then, an anti-phosphorylated tyrosine antibody coupled with a europium compound and streptavidin coupled with modified allophycocyanin XL665 were added to the reaction, and continuously incubated with shaking at room temperature for 1 hour. After incubation, fluorescence intensity values of each well at an excitation wavelength of 304 nm, and emission wavelengths of 620 nm and 665 nM were determined in a TF-FRET mode on a microplate reader. Compared with the fluorescence intensity ratio of a control group (0.1% DMSO), the percentage inhibition rates of the compound at each concentration were calculated, and the IC50 value of the compound was obtained by performing nonlinear regression analysis for logarithmic value of the compound concentration - inhibition rate by GraphPad Prism 5 software, which can be seen in Table 1. Table 1 IC50 data of the compounds of the present invention on TRK enzyme activity inhibition

In assay [3] the target is T3, ROS1 (Homo sapiens, UniProt P08922).
T3 construct: purchased SignalChem R14-11G-10
The assay can be described thus: HTRF KinEASE-TK kinase activity inhibition assay, ROS1. The settings on record: ATP 1 µM. The source says: (§3) The following method was used to determine the inhibition degrees of the compounds of the present invention on the activity of recombinant human ROS1 kinase in vitro. In this method, HTRF®KinEASE-TK tyrosine kinase kit (article No. 62TK0PEB) of Cisbio company was used, the principle of the kit was based on time-resolved fluorescence resonance energy transfer (TF-FRET), and the inhibition of the compounds on the activity of the ROS1 kinase was reflected by determining a phosphorylation degree of a biotinylated polypeptide substrate mediated by ROS1 kinase. For detailed experimental operation, please refer to the kit instruction. […]
(§4) The experimental flow was briefly described as follows: a test compound was first dissolved in DMSO to prepare a storage solution, and then diluted in gradient with a buffer provided in the kit. […] An ATP Km value concentration of each ROS1 protein was determined by using an ATP solution diluted in gradient (Sangon Biotech (Shanghai) Co., Ltd., A600311). […] After incubation, fluorescence intensity values of each well at an excitation wavelength of 304 nm, and emission wavelengths of 620 nm and 665 nM were determined in a TF-FRET mode on a microplate reader, and the fluorescence intensity ratio 665/620 of each hole was calculated. […]

Assay [4] concerns the target T4, ROS1(G2032R) (Homo sapiens, UniProt P08922, G2032R).
T4 construct: purchased SignalChem R14-12BG-10
In words: HTRF KinEASE-TK kinase activity inhibition assay, ROS1(G2032R). The following applies: ATP 0.5 µM.
Description: as §3, §4

Assay [5] has as its target T5, TRKC (Homo sapiens, UniProt Q16288).
T5 construct: purchased Carna bioscience 08-197
The assay can be described thus: HTRF KinEASE-TK kinase activity inhibition assay, TRKC. The settings on record: ATP 50 µM.
Description: as §1, §2

T2 sequence (P04629 33-796 G595R): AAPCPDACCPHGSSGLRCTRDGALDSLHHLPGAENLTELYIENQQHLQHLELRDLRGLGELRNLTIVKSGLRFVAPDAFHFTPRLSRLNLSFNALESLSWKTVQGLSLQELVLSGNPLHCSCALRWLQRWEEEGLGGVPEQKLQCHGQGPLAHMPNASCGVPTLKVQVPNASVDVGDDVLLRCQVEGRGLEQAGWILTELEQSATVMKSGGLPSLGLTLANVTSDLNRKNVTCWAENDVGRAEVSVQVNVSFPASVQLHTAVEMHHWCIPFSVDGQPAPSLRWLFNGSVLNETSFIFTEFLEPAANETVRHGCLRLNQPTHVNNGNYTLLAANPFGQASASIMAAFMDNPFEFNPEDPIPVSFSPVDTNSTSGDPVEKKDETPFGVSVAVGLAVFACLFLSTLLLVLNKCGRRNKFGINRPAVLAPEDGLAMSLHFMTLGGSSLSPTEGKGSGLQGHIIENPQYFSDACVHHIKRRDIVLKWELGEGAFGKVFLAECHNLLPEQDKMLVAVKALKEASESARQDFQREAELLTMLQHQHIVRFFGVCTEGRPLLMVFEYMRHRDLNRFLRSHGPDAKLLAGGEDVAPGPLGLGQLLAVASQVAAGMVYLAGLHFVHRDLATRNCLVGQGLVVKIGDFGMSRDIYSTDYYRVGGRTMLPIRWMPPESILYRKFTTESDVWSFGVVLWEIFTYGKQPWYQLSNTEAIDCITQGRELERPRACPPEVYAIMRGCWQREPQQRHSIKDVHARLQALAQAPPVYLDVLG
T4 sequence (P08922 28-2347 G2032R): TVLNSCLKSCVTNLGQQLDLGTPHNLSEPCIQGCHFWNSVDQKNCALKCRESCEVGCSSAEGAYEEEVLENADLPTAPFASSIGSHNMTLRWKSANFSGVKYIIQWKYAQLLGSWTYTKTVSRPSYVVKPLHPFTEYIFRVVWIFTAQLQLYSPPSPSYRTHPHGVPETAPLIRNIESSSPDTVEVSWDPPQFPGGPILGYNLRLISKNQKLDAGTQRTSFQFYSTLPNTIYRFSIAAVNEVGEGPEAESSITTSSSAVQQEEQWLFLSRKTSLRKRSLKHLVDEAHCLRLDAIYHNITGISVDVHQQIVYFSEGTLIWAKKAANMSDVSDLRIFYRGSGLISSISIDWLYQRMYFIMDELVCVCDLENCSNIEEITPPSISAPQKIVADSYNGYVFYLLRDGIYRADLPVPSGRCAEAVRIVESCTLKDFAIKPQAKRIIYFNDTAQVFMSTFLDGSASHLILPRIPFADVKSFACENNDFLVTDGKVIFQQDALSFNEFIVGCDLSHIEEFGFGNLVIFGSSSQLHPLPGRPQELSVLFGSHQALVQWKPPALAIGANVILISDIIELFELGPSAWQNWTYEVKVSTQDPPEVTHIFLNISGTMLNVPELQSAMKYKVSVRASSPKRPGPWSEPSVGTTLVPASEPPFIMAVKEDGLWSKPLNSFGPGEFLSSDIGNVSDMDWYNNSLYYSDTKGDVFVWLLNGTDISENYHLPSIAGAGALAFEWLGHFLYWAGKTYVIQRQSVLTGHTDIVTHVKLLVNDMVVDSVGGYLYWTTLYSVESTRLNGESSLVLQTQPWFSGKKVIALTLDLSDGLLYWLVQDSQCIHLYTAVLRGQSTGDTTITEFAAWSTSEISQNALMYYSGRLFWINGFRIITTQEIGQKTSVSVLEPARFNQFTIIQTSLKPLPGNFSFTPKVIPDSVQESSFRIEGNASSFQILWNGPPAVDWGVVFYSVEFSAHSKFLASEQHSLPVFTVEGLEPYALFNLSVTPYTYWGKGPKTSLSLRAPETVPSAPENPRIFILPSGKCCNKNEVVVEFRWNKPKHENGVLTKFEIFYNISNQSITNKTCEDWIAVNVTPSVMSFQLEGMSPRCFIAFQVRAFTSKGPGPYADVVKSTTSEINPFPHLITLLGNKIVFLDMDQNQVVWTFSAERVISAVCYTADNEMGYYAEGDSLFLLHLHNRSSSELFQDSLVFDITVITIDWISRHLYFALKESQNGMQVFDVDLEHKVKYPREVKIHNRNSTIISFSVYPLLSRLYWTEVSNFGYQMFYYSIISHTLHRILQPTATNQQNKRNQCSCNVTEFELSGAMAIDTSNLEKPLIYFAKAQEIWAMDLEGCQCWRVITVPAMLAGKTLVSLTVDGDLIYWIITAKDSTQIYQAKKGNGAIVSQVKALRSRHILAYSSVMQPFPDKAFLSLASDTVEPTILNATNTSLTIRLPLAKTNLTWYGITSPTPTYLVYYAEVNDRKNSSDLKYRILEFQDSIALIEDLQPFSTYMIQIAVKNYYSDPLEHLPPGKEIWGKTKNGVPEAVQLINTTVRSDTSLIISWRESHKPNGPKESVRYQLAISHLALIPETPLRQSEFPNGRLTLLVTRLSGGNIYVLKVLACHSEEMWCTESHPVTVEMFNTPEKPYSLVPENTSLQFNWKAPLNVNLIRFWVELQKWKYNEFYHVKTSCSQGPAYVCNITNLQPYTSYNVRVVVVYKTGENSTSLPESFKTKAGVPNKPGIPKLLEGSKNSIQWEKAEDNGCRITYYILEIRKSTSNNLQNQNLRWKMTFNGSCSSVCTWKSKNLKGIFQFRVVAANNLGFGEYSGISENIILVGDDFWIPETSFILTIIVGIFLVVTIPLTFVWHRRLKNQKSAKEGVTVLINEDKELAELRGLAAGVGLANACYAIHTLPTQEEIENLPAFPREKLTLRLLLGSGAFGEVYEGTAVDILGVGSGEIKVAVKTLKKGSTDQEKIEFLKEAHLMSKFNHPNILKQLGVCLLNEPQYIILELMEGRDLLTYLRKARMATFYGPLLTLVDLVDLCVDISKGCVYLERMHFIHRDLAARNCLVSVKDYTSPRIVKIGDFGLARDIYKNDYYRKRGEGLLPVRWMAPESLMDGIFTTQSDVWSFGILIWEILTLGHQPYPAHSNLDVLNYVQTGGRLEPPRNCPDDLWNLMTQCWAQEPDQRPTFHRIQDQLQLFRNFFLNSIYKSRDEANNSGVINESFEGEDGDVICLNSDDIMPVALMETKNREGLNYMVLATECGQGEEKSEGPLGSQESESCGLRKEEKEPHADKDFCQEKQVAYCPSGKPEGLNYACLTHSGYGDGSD
T3 sequence (P08922 28-2347): as the sequence (P08922 28-2347 G2032R) above, with R2005G counted along it
T1 sequence (Q9UM73 19-1620): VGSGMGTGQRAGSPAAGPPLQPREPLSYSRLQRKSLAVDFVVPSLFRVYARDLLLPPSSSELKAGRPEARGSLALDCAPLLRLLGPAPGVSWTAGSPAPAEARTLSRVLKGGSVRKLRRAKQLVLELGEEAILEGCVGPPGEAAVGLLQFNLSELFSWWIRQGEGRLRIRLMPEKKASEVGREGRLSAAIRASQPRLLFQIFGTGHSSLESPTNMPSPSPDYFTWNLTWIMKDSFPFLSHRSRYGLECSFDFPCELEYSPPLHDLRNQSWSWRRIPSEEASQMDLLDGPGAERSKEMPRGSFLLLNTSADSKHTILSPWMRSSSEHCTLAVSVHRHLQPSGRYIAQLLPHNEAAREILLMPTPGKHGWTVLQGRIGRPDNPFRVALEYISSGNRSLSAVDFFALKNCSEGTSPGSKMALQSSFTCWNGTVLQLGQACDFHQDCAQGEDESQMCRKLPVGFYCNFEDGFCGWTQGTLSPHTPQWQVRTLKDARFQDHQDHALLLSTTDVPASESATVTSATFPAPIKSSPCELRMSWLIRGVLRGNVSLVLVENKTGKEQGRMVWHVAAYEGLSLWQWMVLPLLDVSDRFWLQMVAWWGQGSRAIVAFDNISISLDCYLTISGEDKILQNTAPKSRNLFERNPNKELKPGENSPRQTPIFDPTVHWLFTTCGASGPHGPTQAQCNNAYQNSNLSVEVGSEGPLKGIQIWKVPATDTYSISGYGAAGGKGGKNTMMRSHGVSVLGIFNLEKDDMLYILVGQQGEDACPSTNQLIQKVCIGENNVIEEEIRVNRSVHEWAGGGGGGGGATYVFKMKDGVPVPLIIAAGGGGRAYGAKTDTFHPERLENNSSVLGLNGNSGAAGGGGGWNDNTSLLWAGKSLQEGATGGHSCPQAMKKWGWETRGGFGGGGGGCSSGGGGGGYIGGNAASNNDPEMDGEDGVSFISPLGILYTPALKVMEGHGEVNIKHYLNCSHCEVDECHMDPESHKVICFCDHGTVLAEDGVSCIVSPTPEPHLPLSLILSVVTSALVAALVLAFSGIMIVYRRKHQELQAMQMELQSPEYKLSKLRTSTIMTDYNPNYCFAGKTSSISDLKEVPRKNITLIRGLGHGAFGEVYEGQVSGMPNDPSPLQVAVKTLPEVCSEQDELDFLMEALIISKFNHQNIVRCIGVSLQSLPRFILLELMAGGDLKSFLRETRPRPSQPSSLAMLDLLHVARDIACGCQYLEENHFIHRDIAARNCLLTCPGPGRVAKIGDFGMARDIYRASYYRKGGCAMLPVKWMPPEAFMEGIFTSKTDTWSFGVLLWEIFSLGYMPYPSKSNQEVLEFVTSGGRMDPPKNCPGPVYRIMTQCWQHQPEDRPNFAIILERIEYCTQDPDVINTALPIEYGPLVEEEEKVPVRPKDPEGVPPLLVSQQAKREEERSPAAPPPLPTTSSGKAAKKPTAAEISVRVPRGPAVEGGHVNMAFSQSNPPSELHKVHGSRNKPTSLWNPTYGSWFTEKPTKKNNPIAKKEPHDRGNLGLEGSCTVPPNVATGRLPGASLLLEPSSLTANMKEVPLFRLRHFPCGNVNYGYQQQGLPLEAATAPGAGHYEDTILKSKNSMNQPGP

Broadly, the IC50 is the point on the concentration scale where inhibition reaches its midpoint. A low value points to greater potency. On to `C[C@H]1Nc2ccn3ncc(c3n2)C(=O)NC[C@@]2(C)Cc3cc(F)cc1c3O2` [Example 8, (3R,11R)-6-fluoro-3,11-dimethyl-10-oxa-2,13,17,1 8,21-pentaazapentacyclo[13.5.2.1^8,11.0^4,9.0^18,22]tric osa-1(21),4,6,8,15(22),16,19-heptaen-14-one], for which the IC50 in assay [1] amounted to 2.02 nM; in assay [2], 2.03 nM; in assay [3], 0.36 nM; in assay [4], 0.34 nM; in assay [5] it was 0.22 nM.
On to `C[C@H]1Nc2ccn3nc(N)c(c3n2)C(=O)NC[C@@]2(C)Cc3cc(F)cc1c3O2` [Example 25, (3R,11R)-16-amino-6-fluoro-3,11-dimethyl-10-oxa-2,13,17,18,21-pentaazapentacyclo[13.5.2.1^8,11.0^4,9. 0^18,22]tricosa-1(21),4,6,8,15(22),16,19-heptaen-14-one], for which the IC50 turned out to be 1.93 nM in assay [1]; 5.4 nM in assay [2]; 0.84 nM in assay [3]; 2.11 nM in assay [4]; 0.7 nM in assay [5].
